Data set [1] is described as follows: Bidirectional transport of silybin across Caco-2 cell monolayers. The class given is in vitro ADME, Human. The conditions noted are these: human; Caco-2, silybin 2.5, 5 and 10 μM, with baicalein 5 μM. On the procedure: Human colon epithelial cell line (Caco-2) was purchased from American Type Culture Collection (Manassas, VA, United States) and frozen at -80°C. Wild type MDCK II, MDR1-MDCK II, BCRP-MDCK II, and MRP2-MDCK II cells were kindly supplied by the Netherlands Cancer Institute (Amsterdam, Netherlands). Transport study was carried out with Caco-2 cells, and MDCK II cells were transfected using a previously established method with slight modifications ([Yuan et al., 2017]). The Caco-2 cells were cultured at 37°C/5% CO2 in Dulbecco's modified Eagle's medium (DMEM) supplemented with 10% fetal bovine serum, 1% nonessential amino acids, and 1% penicillin-streptomycin. The Caco-2 cells were seeded onto polyester filter membranes in a 12-well Transwell® plate (Corning Costar Co., NY, United States) with 0.6 × 10^5 cells/cm^2. The monolayer cells were used for transport assays between 21 and 23 days. The MDCKII cells were seeded on transwell plates with a density of 2.0 × 10^5 cells/cm^2 and grown for 4-5 days to form a confluent monolayer. Bidirectional transport assays for Caco-2 and MDCK II cells were performed by adding silybin (10 μM) in assay buffer into either the apical (AP; A-to-B) or basolateral (BL; […] For inhibition studies, Caco-2 or MDCK II cell monolayers in both apical and basolateral chambers were preincubated with the inhibitor for 30 min. The fluorescence intensity of the sample collected from the AP or BL side was immediately detected in a 96-well black plate by the Microplate UV/VIS spectrophotometer (TECAN Infinite […], Männedorf, Switzerland). For liquid chromatography tandem-mass spectrometry (LC-MS/MS) analysis, the sample (100 μl) was mixed with methanol (50 μl) containing internal standard (25 ng/ml) and was stored at -80°C. The formula for calculating apparent permeability coefficient (Papp) values is as follows: (1) […] where dQ/dt (mM/s) represents the rate of permeation of the drug across the cells, C0 (mM) refers to the concentration in the donor compartment at time zero calculated from dosing solution, and A (cm^2) refers to the area of the cell monolayer. Papp (B-A) is the Papp value measured in the B to A direction, and Papp (A-B) is the Papp value measured in the A to B direction. The efflux ratio is given as ER = Papp (B to A)/Papp (A to B).
(Caco-2 monolayers are a common model of the intestinal barrier.)

The test system of data set [2] is CCl4-induced liver injury model. Kind of data set: CCl4-induced acute liver injury in rats. The class given is in vivo, SD rats. Details: Nerosis (histologic score, liver H&E) / Haemorrhage (histologic score, liver H&E) / Inflammation (histologic score, liver H&E) / Steatosis (histologic score, liver H&E): scale not given here. On the procedure: Male SD rats were randomly divided into seven groups: […] (2) Group II, given blank vehicle p.o. for 7 days; (3) Group III, treatment with silybin (100 mg/kg bodyweight, p.o.) for 7 days; […] After 24 h of CCl4 treatment, all rats were sacrificed under ether anesthesia. Blood samples were collected from the abdominal aorta for biochemical estimations. The liver was immediately removed and weighed with a large portion of the liver frozen in liquid nitrogen. The pathological liver changes were examined by hematoxylin and eosin (H&E) staining, which was performed by a pathologist who was blinded to this study. The serum levels of ALT, AST, AKP, and SOD as well as the cytokines TNF- α, IL-6, and IL-1β were detected by the assay kit, according to the manufacturer’s instructions.

On the set-up of data set [3]: method as in Pradhan and Girish, 2006. To be noted: doses <10 g/d; ref Pradhan and Girish, 2006; cited from earlier work.
On the set-up of data set [4]: method as in Wen et al., 2008. The conditions noted are these: after oral administration; ref Wen et al., 2008; cited from earlier work.
[5] abbreviates: 100 mg/kg p.o. 7 days, single agent, CCl4 on day 7.
Where [6] appears, read: silybin 100 mg/kg for 7 consecutive days, P < 0.01.

As a reminder, the efflux ratio is a quotient of directional permeabilities that is used to spot active efflux. For the molecule `COc1cc(C2Oc3cc([C@H]4Oc5cc(O)cc(O)c5C(=O)[C@@H]4O)ccc3OC2CO)ccc1O` (some centres unmarked) [silybin, Silybin], the efflux ratio at 180 min in data set [1] is about 2. Further, in data set [2] (setting [5]), the “Haemorrhage (histologic score, liver H&E)” value is 2.2±0.8; the “Inflammation (histologic score, liver H&E)” value was 2.0±0.6; the “Nerosis (histologic score, liver H&E)” value came out at 2.7±0.5; the “Steatosis (histologic score, liver H&E)” value is on record as 2.2±0.8. In addition, the “CCl4-induced increase of liver weight and ratio of liver to body weight” value in data set [2] (p.o. 7 days before CCl4, p < 0.01) is reported as “abrogated”. For the same molecule, in data set [2] (setting [6]), the “CCl4-induced increase in serum IL-1β, IL-6, and TNF-α levels” value is given as “significantly prevented”; the “CCl4-induced increase in the serum activities of ALT, AST, and AKP” value is given as “significantly prevented”. In data set [3], the side effects result is “no significant side effects”. Moreover, in data set [4], the glucuronide conjugated silybin is on record as 55% and the sulfate conjugated silybin was 28%.
